The record followed here is patent US12173026B2, “PRMT5 inhibitors” (Merck Sharp & Dohme LLC, priority 2018, dated 2024).

In the experiment the test system is symmetric dimethylation of arginine (SDMA) of PRMT5 substrates in MCF-7 cells. Kind of experiment: PRMT5 Cell Target Engagement (TE) Assay. It counts as cell-based. The following applies: Homo sapiens, MCF7, 72 h; MCF-7 cells treated for 3 days; nuclear SDMA by high content imaging; top concentration 10000 nM. Summed up: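 MCF-7 cells treated 3 days at 37 °C with 10-point 1:3 titration from 10000 nM top. Fixed cells stained with anti-SDMA antibody plus Alexa488 secondary and Hoechst; nuclear fluorescence quantified by high-content imaging versus DMSO wells. EC50 from 4-parameter fit of percent fluorescence vs log concentration.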
For the compound `Nc1nc2cc(C[C@H]3[C@H]4O[C@@H](n5ccc6c(N)ncnc65)[C@H](O)[C@@]4(O)CC3(F)F)ccc2cc1F` [Example 53, (2R,3R,3aS,6S,6aR)-6-[(2-amino-3-fluoroquinolin-7-yl)methyl]-2-(4-amino-7H-pyrrolo[2,3-d]pyrimidin-7-yl)-5,5-difluorohexahdro-3aH-cyclopenta[b]furan-3,3a-diol], the response was half-maximal at 4.5 nM (EC50).

For `Nc1nc2cc(C[C@H]3[C@H]4O[C@@H](n5ccc6c(N)ncnc65)[C@H](O)[C@@]4(O)C[C@@H]3F)ccc2cc1F` [Example 54, (2R,3R,3aS,5S,6S,6aR)-6-[(2-amino-3-fluoroquinolin-7-yl)methyl]-2-(4-amino-7H-pyrrolo[2,3-d]pyrimidin-7-yl)-5-fluorohexahydro-3aH-cyclopenta[b]furan-3,3a-diol], the EC50 is 8.1 nM.

Consider `Nc1nc2cc(C[C@H]3[C@H]4O[C@@H](n5cc(F)c6c(N)ncnc65)[C@H](O)[C@@]4(O)C[C@@H]3F)ccc2cc1F` [Example 55, (2R,3R,3aS,5S,6S,6aR)-2-(4-amino-5-fluoro-7H-pyrrolo[2,3-d]pyrimidin-7-yl)-6-[(2-amino-3-fluoroquinolin-7-yl)methyl]-5-fluorohexahydro-3aH-cyclopenta[b]furan-3,3a-diol,2,2,2-trifluoroethanol], for which a half-maximal response (EC50) required 3.9 nM.

`Nc1nc2cc(O[C@H]3CC[C@@]4(O)[C@@H]3O[C@@H](n3cc(F)c5c(N)ncnc53)[C@@H]4O)ccc2cc1Br` [Example 56, (2R,3R,3aS,6S,6aR)-6-((2-amino-3-bromoquinolin-7-yl)oxy)-2-(4-amino-5-fluoro-7H-pyrrolo[2,3-d]pyrimidin-7-yl)hexahydro-3aH-cyclopenta[b]furan-3,3a-diol] gave an EC50 of 1.2 nM.

Compound `Nc1ncnc2c1ccn2[C@@H]1O[C@@H]2[C@@H](Oc3ccc4ccc(NCC(F)(F)F)nc4c3)CC[C@]2(O)[C@H]1O` [Example 57, (2R,3R,3aS,6S,6aR)-2-(4-amino-7H-pyrrolo[2,3-d]pyrimidin-7-yl)-6-((2-((2,2,2-trifluoroethyl)amino)quinolin-7-yl)oxy)hexahydro-3aH-cyclopenta[b]furan-3,3a-diol] gave an EC50 of 2.1 nM.

The compound `Nc1ncnc2c1ccn2[C@@H]1O[C@@H]2[C@@H](Oc3ccc4ccc(NCC5CC5)nc4c3)CC[C@]2(O)[C@H]1O` [Example 58, (2R,3R,3aS,6S,6aR)-2-(4-amino-7H-pyrrolo[2,3-d]pyrimidin-7-yl)-6-((2-((cyclopropylmethyl)amino)quinolin-7-yl)oxy)hexahydro-3aH-cyclopenta[b]furan-3,3a-diol] showed an EC50 of 1 nM.

For `Nc1nc2cc(C[C@@H]3CC[C@@]4(O)[C@@H]3O[C@@H](n3cc(F)c5c(N)ncnc53)[C@@H]4O)ccc2cc1F` [Example 59, (2R,3R,3aS,6S,6aR)-6-((2-amino-3-fluoroquinolin-7-yl)methyl)-2-(4-amino-5-fluoro-7H-pyrrolo[2,3-d]pyrimidin-7-yl)hexahydro-3aH-cyclopenta[b]furan-3,3a-diol], it took 4.6 nM to reach a half-maximal effect (EC50).

`Cc1cn([C@@H]2O[C@@H]3[C@@H](Oc4ccc5cc(Br)c(N)nc5c4)CC[C@]3(O)[C@H]2O)c2ncnc(N)c12` [Example 60, (2R,3R,3aS,6S,6aR)-6-((2-amino-3-bromoquinolin-7-yl)oxy)-2-(4-amino-5-methyl-7H-pyrrolo[2,3-d]pyrimidin-7-yl)hexahydro-3aH-cyclopenta[b]furan-3,3a-diol] displayed an EC50 of 1.5 nM.

In the case of `Cc1nc(N)c2ccn([C@@H]3O[C@@H]4[C@H](Cc5ccc6cc(Br)c(N)nc6c5)CC[C@]4(O)[C@H]3O)c2n1` [Example 61, (2R,3R,3aS,6S,6aR)-2-(4-amino-2-methyl-7H-pyrrolo[2,3-d]pyrimidin-7-yl)-6-((2-amino-3 bromoquinolin-7-yl)methyl)hexahydro-3aH-cyclopenta[b]furan-3,3a-diol], the response was half-maximal at 3.2 nM (EC50).

In the case of `Cc1cn([C@@H]2O[C@@H]3[C@H](Cc4ccc5cc(F)c(N)nc5c4)CC[C@]3(O)[C@H]2O)c2ncnc(N)c12` [Example 62, (2R,3R,3aS,6S,6aR)-6-((2-amino-3-fluoroquinolin-7-yl)methyl)-2-(4-amino-5-methyl-7H-pyrrolo[2,3-d]pyrimidin-7-yl)hexahydro-3aH-cyclopenta[b]furan-3,3a-diol 2,2,2-trifluoroacetate], the midpoint of the response, the EC50, lay at 3.7 nM.

`Cc1nc(N)c2ccn([C@@H]3O[C@@H]4[C@@H](Oc5ccc6cc(Br)c(N)nc6c5)CC[C@]4(O)[C@H]3O)c2n1` [Example 63, (2R,3R,3aS,6S,6aR)-2-(4-amino-2-methyl-7H-pyrrolo[2,3-d]pynmidin-7-yl)-6-((2-amino-3-bromoquinolin-7-yl)oxy)hexahydro-3aH-cyclopenta[b]furan-3,3a-diol] gave an EC50 of 5.6 nM.

Take `Cc1cn([C@@H]2O[C@@H]3[C@H](Cc4ccc5cc(Cl)c(N)nc5c4)CC[C@]3(O)[C@H]2O)c2ncnc(N)c12` [Example 66, (2R,3R,3aS,6S,6aR)-6-((2-amino-3-chloroquinolin-7-yl)methyl)-2-(4-amino-5-methyl-7H-pyrrolo[2,3-d]pyrimidin-7-yl)hexahydro-3aH-cyclopenta[b]furan-3,3a-diol]: the EC50 was 0.9 nM.

As for `Nc1nc2cc(C[C@@H]3CC[C@@]4(O)[C@@H]3O[C@@H](n3ccc5c(N)ncnc53)[C@@H]4O)ccc2cc1Cl` [Example 67, (2R,3R,3aS,6S,6aR)-6-((2-amino-3-chloroquinolin-7-yl)methyl)-2-(4-amino-7H-pyrrolo[2,3-d]pyrimidin-7-yl)hexahydro-3aH-cyclopenta[b]furan-3,3a-diol], the EC50 worked out at 1.2 nM.

Compound `Nc1nc2cc(C[C@@H]3CC[C@@]4(O)[C@@H]3O[C@@H](n3cc(F)c5c(N)ncnc53)[C@@H]4O)ccc2cc1Cl` [Example 68, (2R,3R,3aS,6S,6aR)-6-((2-amino-3-chloroquinolin-7-yl)methyl)-2-(4-amino-5-fluoro-7H-pyrrolo[2,3-d]pyrimidin-7-yl)hexahydro-3aH-cyclopenta[b]furan-3,3a-diol] registered an EC50 of 1.1 nM.

For the compound `Cc1cn([C@@H]2O[C@@H]3[C@H](Cc4ccc5cc(Br)c(N)nc5c4)CC[C@]3(O)[C@H]2O)c2ncnc(N)c12` [Example 70, (2R,3R,3aS,6S,6aR)-6-((2-amino-3-bromoquinolin-7-yl)methyl)-2-(4-amino-5-methyl-7H-pyrrolo[2,3-d]pyrimidin-7-yl)hexahydro-3aH-cyclopenta[b]furan-3,3a-diol 2,2,2-trifluoroacetate], the EC50 is 1 nM.

In the case of `Nc1nc2cc(O[C@H]3CC[C@@]4(O)[C@@H]3O[C@@H](n3ccc5c(N)ncnc53)[C@@H]4O)ccc2cc1F` [Example 71, (2R,3R,3aS,6S,6aR)-6-((2-amino-3-fluoroquinolin-7-yl)oxy)-2-(4-amino-7H-pyrrolo[2,3-d]pyrimidin-7-yl)hexahydro-3aH-cyclopenta[b]furan-3,3a-diol], a half-maximal effect (EC50) was put at 9 nM.

The compound `Nc1nc2cc(O[C@H]3CC[C@@]4(O)[C@@H]3O[C@@H](n3ccc5c(N)ncnc53)[C@@H]4O)ccc2cc1Cl` [Example 72, (2R,3R,3aS,6S,6aR)-6-((2-amino-3-chioroquinolin-7-yl)oxy)-2-(4-amino-7H-pyrrolo[2,3-d]pyrimidin-7-yl)hexahydro-3aH-cyclopenta[b]furan-3,3a-diol] had an EC50 of 1.2 nM.

The compound `Nc1nc2cc(O[C@H]3CC[C@@]4(O)[C@@H]3O[C@@H](n3cc(F)c5c(N)ncnc53)[C@@H]4O)ccc2cc1F` [Example 73, (2R,3R,3aS,6S,6aR)-6-((2-amino-3-fluoroquinolin-7-yl)oxy)-2-(4-amino-5-fluoro-7H-pyrrolo[2,3-d]pyrimidin-7-yl)hexahydro-3aH-cyclopenta[b]furan-3,3a-diol] registered an EC50 of 2 nM.

In the case of `Nc1nc2cc(O[C@H]3CC[C@@]4(O)[C@@H]3O[C@@H](n3cc(F)c5c(N)ncnc53)[C@@H]4O)ccc2cc1Cl` [Example 74, (2R,3R,3aS,6S,6aR)-6-((2-amino-3-chloroquinolin-7-yl)oxy)-2-(4-amino-5-fluoro-7H-pyrrolo[2,3-d]pyrimidin-7-yl)hexahydro-3aH-cyclopenta[b]furan-3,3a-diol], the EC50 turned out to be 1 nM.

For `Nc1ncnc2c1ccn2[C@@H]1O[C@@H]2[C@@H](Oc3ccc4cc5c(nc4c3)NCC5)CC[C@]2(O)[C@H]1O` [Example 75, (2R,3R,3aS,6S,6aR)-2-(4-amino-7H-pyrrolo[2,3-d]pyrimidin-7-yl)-6-((2,3-dihydro-1H-pyrrolo[2,3-b]quinolin-7-yl)oxy)hexahydro-3aH-cyclopenta[b]furan-3,3a-diol], it took 5 nM to reach a half-maximal effect (EC50).

In turn, `Nc1nc2cc(C[C@@H]3CC[C@@]4(O)[C@@H]3O[C@@H](n3ccc5c(N)ncnc53)[C@@H]4O)ccc2cc1C(F)(F)F` [Example 76, (2R,3R,3aS,6S,6aR)-6-((2-amino-3-(trifluoromethyl)quinolin-7-yl)methyl)-2-(4-amino-7H-pyrrolo[2,3-d]pyrimidin-7-yl)hexahydro-3aH-cyclopenta[b]furan-3,3a-diol] returned an EC50 of 8.6 nM.

The compound `Nc1nc2cc(O[C@H]3CC[C@@]4(O)[C@@H]3O[C@@H](n3ccc5c(CO)ncnc53)[C@@H]4O)ccc2cc1Br` [Example 77, (2R,3R,3aS,6S,6aR)-6-[(2-amino-3-bromoquinolin-7-yl)oxy]-2-[4-(hydroxymethyl)-7H-pyrrolo[2,3-d]pyrimidin-7-yl]hexahydro-3aH-cyclopenta[b]furan-3,3a-diol] came in with an EC50 of 186 nM.

With `CC(C)(O)c1ncnc2c1ccn2[C@@H]1O[C@@H]2[C@@H](Oc3ccc4cc(Br)c(N)nc4c3)CC[C@]2(O)[C@H]1O` [Example 78, (2R,3R,3aS,6S,6aR)-6-1(2-amino-3-bromoquinolin-7-yl)oxyl-2-[4-(2-hydroxypropan-2-yl)-7H-pyrrolo[2,3-d]pyrimidin-7-yl]hexahydro-3aH-cyclcopenta[b]furan-3,3a-diol], a half-maximal response (EC50) required 5990 nM.
